COc1cccc(Nc2ccccc2)c1
Conditions	solubility (mole fraction)
in 1,2-dichloroethane, 287.65 K	0.149
in 1,2-dichloroethane, 292.3 K	0.182
in 1,2-dichloroethane, 297.35 K	0.216
in 1,2-dichloroethane, 302.55 K	0.258
in 1,2-dichloroethane, 308.65 K	0.312
in 1,2-dichloroethane, 313.15 K	0.355
in 1,2-dichloroethane, 318.85 K	0.401
in 1,2-dichloroethane, 324.25 K	0.443
in 1,2-dichloroethane, 329.55 K	0.502
in 1,2-dichloroethane, 333.75 K	0.545
in acetone, 287.25 K	0.237
in acetone, 292.85 K	0.264
in acetone, 298.95 K	0.3
in acetone, 303.05 K	0.327
in acetone, 308.15 K	0.361
in acetone, 313.05 K	0.407
in acetone, 317.55 K	0.456
in acetone, 321.75 K	0.513
in chloroform, 290.25 K	0.181
in chloroform, 295.25 K	0.218
in chloroform, 300.55 K	0.258
in chloroform, 306.15 K	0.308
in chloroform, 311.5 K	0.35
in chloroform, 315.5 K	0.386
in chloroform, 319.8 K	0.424
in chloroform, 323.13 K	0.456
in ethyl acetate, 287.15 K	0.195
in ethyl acetate, 291.05 K	0.225
in ethyl acetate, 295.55 K	0.254
in ethyl acetate, 300.18 K	0.283
in ethyl acetate, 306.35 K	0.329
in ethyl acetate, 311.25 K	0.366
in ethyl acetate, 316.25 K	0.407
in ethyl acetate, 321.35 K	0.442
in ethyl acetate, 326.25 K	0.5
in ethyl acetate, 330.15 K	0.543
in methanol, 287.25 K	0.0134
in methanol, 291.95 K	0.0174
in methanol, 296.65 K	0.0214
in methanol, 301.15 K	0.0268
in methanol, 305.35 K	0.0339
in methanol, 311.85 K	0.0478
in methanol, 316.25 K	0.0579
in methanol, 321.25 K	0.0724
in methanol, 327.15 K	0.0972

CSc1cccc(Nc2ccccc2)c1
Conditions	solubility (mole fraction)
in 1,2-dichloroethane, 287.65 K	0.189
in 1,2-dichloroethane, 292.3 K	0.231
in 1,2-dichloroethane, 296.85 K	0.278
in 1,2-dichloroethane, 300.95 K	0.311
in 1,2-dichloroethane, 305.35 K	0.36
in 1,2-dichloroethane, 310.45 K	0.415
in 1,2-dichloroethane, 315.15 K	0.466
in 1,2-dichloroethane, 319.75 K	0.515
in 1,2-dichloroethane, 324.25 K	0.562
in 1,2-dichloroethane, 329.55 K	0.615
in 1,2-dichloroethane, 333.75 K	0.654
in acetone, 287.45 K	0.254
in acetone, 292.55 K	0.306
in acetone, 296.15 K	0.343
in acetone, 300.35 K	0.381
in acetone, 305.45 K	0.438
in acetone, 310.65 K	0.5
in acetone, 315.15 K	0.551
in acetone, 321.75 K	0.643
in chloroform, 288.85 K	0.226
in chloroform, 293.35 K	0.263
in chloroform, 297.05 K	0.296
in chloroform, 302 K	0.338
in chloroform, 307.55 K	0.391
in chloroform, 313.25 K	0.449
in chloroform, 318.75 K	0.511
in chloroform, 323.13 K	0.557
in ethyl acetate, 287.85 K	0.231
in ethyl acetate, 292.95 K	0.281
in ethyl acetate, 297.25 K	0.311
in ethyl acetate, 302.15 K	0.357
in ethyl acetate, 306.65 K	0.403
in ethyl acetate, 311.25 K	0.452
in ethyl acetate, 316.45 K	0.516
in ethyl acetate, 321.35 K	0.573
in ethyl acetate, 325.85 K	0.643
in ethyl acetate, 330.15 K	0.711
in methanol, 287.65 K	0.0115
in methanol, 291.55 K	0.016
in methanol, 297.15 K	0.0235
in methanol, 302.4 K	0.0342
in methanol, 307.25 K	0.046
in methanol, 311.95 K	0.0608
in methanol, 316.35 K	0.0761
in methanol, 321.25 K	0.0951
in methanol, 327.15 K	0.121

Source: BigSolDB 2.1
